The target in assay [1] is T1, IGF-1R (Homo sapiens (Human), UniProt P08069). As to the kind of experiment: Example B-1: IGF-1R Assay (PC3 cells, IGF1 stimulation, AlphaLISA). It is filed as cell-based. The following applies: 200 ng/mL IGF1 stimulation, read-out: Biological Activity against IGF-1R IC50. The procedure, abridged:
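Readout is AlphaLISA signal from lysed PC3 cells, expressed as % inhibition versus vehicle and EC80 controls and banded by IC50. Before lysis, the cells were starved of serum for 2 h, exposed to 3× serially diluted compound for 2 h, and stimulated for 30 min with 200 ng/mL IGF1 (final).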
(In general: Bead proximity is the source of the signal in Alpha formats.)
Target sequence in this assay (P08069 31-1367): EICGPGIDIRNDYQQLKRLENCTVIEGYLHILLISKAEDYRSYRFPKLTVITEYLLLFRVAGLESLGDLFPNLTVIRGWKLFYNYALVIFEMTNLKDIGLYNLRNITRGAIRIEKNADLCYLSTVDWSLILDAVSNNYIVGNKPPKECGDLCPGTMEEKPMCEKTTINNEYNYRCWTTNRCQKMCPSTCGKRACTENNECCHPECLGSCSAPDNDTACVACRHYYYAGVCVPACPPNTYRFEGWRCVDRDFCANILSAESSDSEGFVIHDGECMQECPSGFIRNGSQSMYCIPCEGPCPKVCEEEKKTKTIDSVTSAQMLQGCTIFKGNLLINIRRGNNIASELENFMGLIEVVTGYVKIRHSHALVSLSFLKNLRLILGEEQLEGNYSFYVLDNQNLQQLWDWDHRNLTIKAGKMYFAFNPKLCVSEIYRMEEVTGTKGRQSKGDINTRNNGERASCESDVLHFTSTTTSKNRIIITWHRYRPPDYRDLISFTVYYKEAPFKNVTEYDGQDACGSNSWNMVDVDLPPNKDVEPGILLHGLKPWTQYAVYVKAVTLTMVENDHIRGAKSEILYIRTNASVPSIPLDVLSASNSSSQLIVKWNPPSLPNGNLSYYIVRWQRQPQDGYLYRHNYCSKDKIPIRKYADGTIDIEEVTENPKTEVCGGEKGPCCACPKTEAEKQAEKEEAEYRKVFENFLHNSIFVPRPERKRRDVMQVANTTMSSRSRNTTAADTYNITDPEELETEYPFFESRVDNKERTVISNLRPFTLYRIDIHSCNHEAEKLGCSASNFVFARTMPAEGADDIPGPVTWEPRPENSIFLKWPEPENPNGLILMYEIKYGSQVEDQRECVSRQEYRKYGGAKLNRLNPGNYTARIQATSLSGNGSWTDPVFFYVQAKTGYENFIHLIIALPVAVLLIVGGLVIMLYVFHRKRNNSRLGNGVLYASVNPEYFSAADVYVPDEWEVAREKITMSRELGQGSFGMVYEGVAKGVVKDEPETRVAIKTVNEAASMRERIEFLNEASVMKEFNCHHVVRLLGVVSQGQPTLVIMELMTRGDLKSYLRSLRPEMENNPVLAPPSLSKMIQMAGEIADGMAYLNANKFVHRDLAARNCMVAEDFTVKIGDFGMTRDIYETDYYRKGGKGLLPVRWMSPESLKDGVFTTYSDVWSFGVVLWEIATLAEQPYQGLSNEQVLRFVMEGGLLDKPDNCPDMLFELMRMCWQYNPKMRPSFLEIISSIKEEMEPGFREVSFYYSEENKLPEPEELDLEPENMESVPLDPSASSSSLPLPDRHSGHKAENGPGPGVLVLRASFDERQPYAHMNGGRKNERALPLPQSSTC

Assay [2] addresses T1, IGF-1R. As to the kind of experiment: Example B-2: IGF-1R Assay (PathHunter cell lines, EC80 agonist challenge). It is filed as cell-based. Conditions: read-out: IC50 (Biological Activity against IGF-1R). On the procedure: PathHunter cell lines were expanded from freezer stocks according to standard procedures. Cells were seeded in a total volume of 20 μL into white walled, 384-well microplates and incubated for the appropriate time prior to testing.
Cells are pre-incubated with compound followed by EC80 agonist challenge as follows: • 1. Intermediate dilution of sample stocks was performed to generate 5× sample in assay buffer. • 2. 5 μL of 5× sample was added to cells and incubated at 37° C. for 60 minutes. Vehicle concentration was 1%. • 3. 5 μL of 6×EC80 agonist in assay buffer was added to the cells and incubated at room temperature for 3 hours.
Assay signal was generated through a single addition of 12.5 or 15 μL (50% v/v) of PathHunter Detection reagent cocktail for agonist and antagonist assays respectively, followed by a one hour incubation at room temperature. Microplates were read following signal generation with a PerkinElmer Envision™ instrument for chemilumine-scent signal detection.
Compound activity was analyzed using CBIS data analysis suite (ChemInnovation, CA). Percentage inhibition was calculated using the following formula: % Inhibition=100%×(1−(mean RLU of test sample−mean RLU of vehicle control)/(mean RLU of EC80 control−mean RLU of vehicle control)). The activity for representative examples of the invention is shown in the following table, wherein A: IC50≤500 nM; B: 500 nM<IC50≤2 μM; C: […]≤10 μM; D: IC50>[…].
Target sequence in this assay (P08069 31-1367, species assumed): as the sequence (P08069 31-1367) above

Usually IC50 stands for the concentration at which inhibition is half-maximal. Turning to `CN(C)CC1COc2cc(Nc3nccc(Nc4cnc5ccccc5c4)n3)cnc2O1` (stereo not shown) [Compound 178, 2-{3-[(dimethylamino)methyl]-2,3-dihydro-1,4-dioxa-5-aza-7-naphthylamino}-4-(3-quinolylamino)pyrimidine], the IC50 on IGF-1R [1] and at IGF-1R [2] was not above 500 nM each time.
Take `COc1cc(Nc2nccc(Nc3cnc4ccc(Cl)cc4c3)n2)ccc1OCCCN1CCCCC1` [Compound 196, 4-(6-chloro-3-quinolylamino)-2-[3-methoxy-4-(3-piperidinopropoxy)phenylamino]pyrimidine]: the IC50 at IGF-1R [1] and at IGF-1R [2] was not above 500 nM each time.
As for `CN(C)CC1COc2cc(Nc3nccc(Nc4cnc5ccccc5c4)n3)ccc2O1` (stereo not shown) [Compound 135, N2-(2-((dimethylamino)methyl)-2,3-dihydrobenzo[b][1,4]dioxin-6-yl)-N4-(quinolin-3-yl)pyrimidine-2,4-diamine], the IC50 at IGF-1R [1] and on IGF-1R [2] was not above 500 nM in each case.
Turning to `c1ccc2ncc(Nc3ccnc(Nc4ccc5ccn(CC6CCCCC6)c5c4)n3)cc2c1` [Compound 503, 2-[1-(cyclohexylmethyl)-6-indolylamino]-4-(3-quinolylamino)pyrimidine], the IC50 on IGF-1R [1] and on IGF-1R [2] was 2000 to 10000 nM throughout.
As to `CN(C)CCN1CCc2ccc(Nc3nccc(Nc4cnc5ccccc5c4)n3)cc21` [Compound 143, N2-(1-(2-(dimethylamino)ethyl)indolin-6-yl)-N4-(quinolin-3-yl)pyrimidine-2,4-diamine], the IC50 on IGF-1R [1] and on IGF-1R [2] was not above 500 nM throughout.
Take `CN(C)CC(=O)N1CCOc2ccc(Nc3nccc(Nc4cnc5cc(F)c(F)cc5c4)n3)cc21` [Compound 149, 1-(6-((4-((6,7-difluoroquinolin-3-yl)amino)pyrimidin-2-yl)amino)-2,3-dihydro-4H-benzo[b][1.4]oxazin-4-yl)-2-(dimethylamino)ethan-1-one]: the IC50 at IGF-1R [1] and on IGF-1R [2] was not above 500 nM each time.
Turning to `c1ccc2ncc(Nc3ccnc(Nc4ccc5c(c4)OCCO5)n3)cc2c1` [Compound 505, 2-(2,3-dihydro-1,4-benzodioxin-6-ylamino)-4-(3-quinolylamino)pyrimidine], the IC50 at IGF-1R [1] and at IGF-1R [2] was not above 500 nM each time.
For `CN(C)CC(=O)N1CCc2ccc(Nc3nccc(Nc4cnc5c(F)c(F)ccc5c4)n3)cc21` [Compound 138, 1-(6-((4-((7,8-difluoroquinolin-3-yl)amino)pyrimidin-2-yl)amino)indolin-1-yl)-2-(dimethylamino)ethan-1-one], the IC50 on IGF-1R [1] and on IGF-1R [2] was not above 500 nM throughout.
With `COc1nc(C2CCOCC2)ccc1Nc1nccc(Nc2cc3cccc(F)c3[nH]c2=O)n1` [Compound 224, 8-fluoro-3-{2-[2-methoxy-6-(tetrahydro-2H-pyran-4-yl)-3-pyridylamino]-4-pyrimidinylamino}-1,2-dihydro-2-quinolinone], the values for the IC50 at IGF-1R [1] and on IGF-1R [2] were not above 500 nM and 500 to 2000 nM, respectively.
As for `CN(C)CC1COc2cc(Nc3nccc(Nc4cnc5cc(F)c(F)cc5c4)n3)cnc2O1` (stereo not shown) [Compound 499, 4-(6,7-difluoro-3-quinolylamino)-2-{3-[(dimethylamino)methyl]-2,3-dihydro-1,4-dioxa-5-aza-7-naphthylamino}pyrimidine], the IC50 on IGF-1R [1] and on IGF-1R [2] was 500 to 2000 nM each time.
Consider `CN(C)CC(=O)N1CCc2ccc(Nc3nccc(Nc4cnc5ccccc5c4)n3)cc21` [Compound 92, 2-(dimethylamino)-1-{6-[4-(3-quinolylamino)-2-pyrimidinylamino]-1-indolinyl}-1-ethanone], for which the IC50 at IGF-1R [1] and at IGF-1R [2] was not above 500 nM in each case.
For the compound `COc1cc(Nc2nccc(Nc3cnc4c(Cl)cc(F)cc4c3)n2)ccc1O[C@H]1C[C@@H](N(C)C)C1` [Compound 116, 4-(8-chloro-6-fluoro-3-quinolylamino)-2-{3-methoxy-4-[(1s,3s)-3-(dimethylamino)cyclobutoxy]phenylamino}pyrimidine], the values for the IC50 at IGF-1R [1] and on IGF-1R [2] were not above 500 nM and 500 to 2000 nM, respectively.
`COc1cc(Nc2nccc(Nc3cnc4c(c3)CCC3(CCC3)C4)n2)ccc1O[C@H]1C[C@H](N(C)C)C1` [Compound 77, 4-(6′,8′-dihydro-5′H-spiro[cyclobutane-1,7′-quinolin]-3′-ylamino)-2-{3-methoxy-4-[(1r,3r)-3-(dimethylamino)cyclobutoxy]phenylamino}pyrimidine]: the IC50 on IGF-1R [1] and on IGF-1R [2] was not above 500 nM each time.
Consider `c1ccc2ncc(Nc3ccnc(Nc4ccc5c(ccn5CC5CCOCC5)c4)n3)cc2c1` [Compound 501, 4-(3-quinolylamino)-2-{1-[(tetrahydro-2H-pyran-4-yl)methyl]-5-indolylamino}pyrimidine], for which the IC50 at IGF-1R [1] and on IGF-1R [2] was 500 to 2000 nM in each case.
As for `COc1cc(Nc2nccc(Nc3cnc4c(c3)OCCO4)n2)ccc1O[C@H]1C[C@@H](N(C)C)C1` [Compound 200, 4-(2,3-dihydro-1,4-dioxa-5-aza-7-naphthylamino)-2-{3-methoxy-4-[(1s,3s)-3-(dimethylamino)cyclobutoxy]phenylamino}pyrimidine], the IC50 on IGF-1R [1] and on IGF-1R [2] was not above 500 nM in each case.
On to `COc1cc(Nc2nccc(Nc3cnc4c(F)c(F)ccc4c3)n2)cnc1O[C@H]1C[C@@H](N(C)C)C1` [Compound 291, 4-(7,8-difluoro-3-quinolylamino)-2-{5-methoxy-6-[(1s,3s)-3-(dimethylamino)cyclobutoxy]-3-pyridylamino}pyrimidine], for which the IC50 is not above 500 nM on IGF-1R [1] and 500 to 2000 nM at IGF-1R [2].
Turning to `COc1cc(Nc2nccc(Nc3cnc4ccccc4c3)n2)ccc1O[C@H]1C[C@@H](N2CCOCC2)C1` [Compound 21, 2-{3-methoxy-4-[(1s,3s)-3-morpholinocyclobutoxy]phenylamino}-4-(3-quinolylamino)pyrimidine], the IC50 at IGF-1R [1] and at IGF-1R [2] was not above 500 nM throughout.
On to `COc1cc(C2CCOCC2)ncc1Nc1nccc(Nc2cc3cccc(F)c3[nH]c2=O)n1` [Compound 214, 8-fluoro-3-{2-[4-methoxy-6-(tetrahydro-2H-pyran-4-yl)-3-pyridylamino]-4-pyrimidinylamino}-1,2-dihydro-2-quinolinone], for which the IC50 on IGF-1R [1] and at IGF-1R [2] was not above 500 nM in each case.
Take `CN(C)CC1COc2cc(Nc3nccc(Nc4cnc5ccc(Cl)cc5c4)n3)ccc2O1` (stereo not shown) [Compound 136, N4-(6-chloroquinolin-3-yl)-N2-(2-((dimethylamino)methyl)-2,3-dihydrobenzo[b][1,4]dioxin-6-yl)pyrimidine-2,4-diamine]: the IC50 on IGF-1R [1] and on IGF-1R [2] was not above 500 nM in each case.
Regarding `COc1cc(Nc2nccc(Nc3cnc4c(c3)OCCO4)n2)ccc1O[C@H]1C[C@H](N(C)C)C1` [Compound 357, 4-(2,3-dihydro-1,4-dioxa-5-aza-7-naphthylamino)-2-{3-methoxy-4-[(1r,3r)-3-(dimethylamino)cyclobutoxy]phenylamino}pyrimidine], the IC50 at IGF-1R [1] and at IGF-1R [2] was not above 500 nM throughout.
As for `CN(C)CC1COc2cc(Nc3nccc(Nc4cc5ccccc5nc4C(N)=O)n3)ccc2O1` (stereo not shown) [Compound 171, 3-((2-((2-((dimethylamino)methyl)-2,3-dihydrobenzo[b][1,4]dioxin-6-yl)amino)pyrimidin-4-yl)amino)quinoline-2-carboxamide], the IC50 on IGF-1R [1] and at IGF-1R [2] was not above 500 nM each time.
With `CN(C)C[C@H]1COc2cc(Nc3nccc(Nc4cnc5ccc(Cl)cc5c4)n3)ccc2O1` [Compound 144, (S)—N4-(6-chloroquinolin-3-yl)-N2-(2-((dimethylamino)methyl)-2,3-dihydrobenzo[b][1,4]dioxin-6-yl)pyrimidine-2,4-diamine], the IC50 at IGF-1R [1] and on IGF-1R [2] was not above 500 nM each time.
Take `CN(C)CC(=O)N1CCc2ccc(Nc3nccc(Nc4cnc5cc(F)c(F)cc5c4)n3)cc21` [Compound 147, 1-(6-((4-((6,7-difluoroquinolin-3-yl)amino)pyrimidin-2-yl)amino)indolin-1-yl)-2-(dimethylamino)ethan-1-one]: the IC50 at IGF-1R [1] and at IGF-1R [2] was 500 to 2000 nM each time.
With `COc1cc(N2CCN(C)CC2)ccc1Nc1nccc(Nc2cnc3ccc(Br)cc3c2)n1` [Compound 466, 4-(6-bromo-3-quinolylamino)-2-[2-methoxy-4-(4-methyl-1-piperazinyl)phenylamino] pyrimidine], the IC50 at IGF-1R [1] was not above 500 nM; on IGF-1R [2] it was 500 to 2000 nM.
In the same order, the values of `COc1cc(Nc2nccc(Nc3cnc4ccc(C(F)F)cc4c3)n2)ccc1O[C@H]1C[C@H](N(C)C)C1` [Compound 162, 4-[6-(difluoromethyl)-3-quinolylamino]-2-{3-methoxy-4-[(1r,3r)-3-(dimethylamino)cyclobutoxy]phenylamino}pyrimidine] are not above 500 nM and 500 to 2000 nM.
The matching figures for `CN(C)CC(=O)N1CCc2ncc(Nc3nccc(Nc4cnc5ccccc5c4)n3)cc21` [Compound 137, 2-(dimethylamino)-1-(6-((4-(quinolin-3-ylamino)pyrimidin-2-yl)amino)-2,3-dihydro-1H-pyrrolo[3,2-b]pyridin-1-yl)ethan-1-one]: not above 500 nM and not above 500 nM.

For the origin of these results see patent publication US20250171431A1, “HETEROCYCLIC INHIBITORS OF IGF-1R FOR TREATMENT OF DISEASE” (HORIZON THERAPEUTICS IRELAND DAC, priority 2023, published 2025).
